Experimental data as given in ChEMBL document CHEMBL1141936, “Structural basis for the GSK-3beta binding affinity and selectivity against CDK-2 of 1-(4-aminofurazan-3yl)-5-dialkylaminomethyl-1H-[1,2,3] triazole-4-carboxylic acid derivatives” (Bioorg Med Chem Lett, 2005).

Key:
[1] = molecular target: Cyclin-dependent kinase 2 (Homo sapiens, UniProt P24941); experiment: Inhibitory activity against CDK2
[2] = molecular target: Glycogen synthase kinase-3 beta (Homo sapiens, UniProt P49841); experiment: Inhibitory activity against GSK3-beta
Sequence of Glycogen synthase kinase-3 beta (P49841 whole entry): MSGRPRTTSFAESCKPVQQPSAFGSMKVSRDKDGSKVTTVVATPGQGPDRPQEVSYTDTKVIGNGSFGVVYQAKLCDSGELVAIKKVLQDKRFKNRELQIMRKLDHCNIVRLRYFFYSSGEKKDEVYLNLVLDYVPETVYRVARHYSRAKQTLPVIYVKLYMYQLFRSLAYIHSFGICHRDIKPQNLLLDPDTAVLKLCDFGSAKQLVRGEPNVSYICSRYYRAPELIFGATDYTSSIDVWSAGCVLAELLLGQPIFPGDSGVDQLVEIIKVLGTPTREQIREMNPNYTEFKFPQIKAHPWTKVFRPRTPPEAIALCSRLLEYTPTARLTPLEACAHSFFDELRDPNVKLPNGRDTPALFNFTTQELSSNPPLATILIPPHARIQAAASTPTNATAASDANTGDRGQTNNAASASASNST

Row | IC50 [1] [µM] | IC50 [2] [µM] | SMILES
1 | > 250 | 0.28 | NC1=NONC1N1N=NC(c2nnc(-c3ccncc3)[nH]2)C1CN1CCCCC1 (centres undefined)
2 | 96 | 0.1 | NC1=NONC1N1N=NC(C(=O)N/N=C/c2ccncc2)C1CN1CCCCC1 (centres undefined)
